The record followed here is article PMC6164480, “A New Synthetic Histone Deacetylase Inhibitor, MHY2256, Induces Apoptosis and Autophagy Cell Death in Endometrial Cancer Cells via p53 Acetylation” (International Journal of Molecular Sciences, 2018).

This assay concerns the target T1, SIRT1 (Homo sapiens, UniProt Q96EB6).
T1 sequence (Q96EB6 2-747): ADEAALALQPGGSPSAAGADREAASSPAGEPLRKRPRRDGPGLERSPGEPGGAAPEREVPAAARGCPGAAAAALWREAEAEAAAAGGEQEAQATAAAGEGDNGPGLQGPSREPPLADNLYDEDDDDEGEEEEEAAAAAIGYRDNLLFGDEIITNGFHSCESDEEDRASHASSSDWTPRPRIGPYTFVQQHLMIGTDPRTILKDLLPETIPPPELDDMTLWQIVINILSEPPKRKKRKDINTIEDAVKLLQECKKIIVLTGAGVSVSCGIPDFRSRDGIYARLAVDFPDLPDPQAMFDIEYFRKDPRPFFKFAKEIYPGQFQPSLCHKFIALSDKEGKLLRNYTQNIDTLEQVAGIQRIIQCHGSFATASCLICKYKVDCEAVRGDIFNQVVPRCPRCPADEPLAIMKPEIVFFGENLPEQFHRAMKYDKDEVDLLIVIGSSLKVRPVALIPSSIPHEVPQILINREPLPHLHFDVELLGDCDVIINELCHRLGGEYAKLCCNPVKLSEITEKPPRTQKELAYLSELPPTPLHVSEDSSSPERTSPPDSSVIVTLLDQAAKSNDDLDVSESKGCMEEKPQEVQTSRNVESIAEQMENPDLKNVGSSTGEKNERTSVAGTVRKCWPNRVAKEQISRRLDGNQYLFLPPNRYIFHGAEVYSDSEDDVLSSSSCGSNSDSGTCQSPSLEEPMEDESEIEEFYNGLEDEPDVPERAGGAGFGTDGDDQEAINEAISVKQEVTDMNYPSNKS
The experiment in a line: SensoLyte […] FRET fluorimetric SIRT1 enzyme activity assay kit. The class given is biochemical.

What is called IC50 is the midpoint of a concentration-inhibition curve. Low values mean inhibition by little substance, high ones a need for much substance. Take `CC(C(=O)Nc1cccc(/N=C/c2c(O)ccc3ccccc23)c1)c1ccccc1` (centres unmarked) [salermide]: the midpoint of inhibition, the IC50, lay at 4.8 µM.

`CC(C)(C)c1cc(C=C2C(=O)NC(=S)NC2=O)cc(C(C)(C)C)c1O` [MHY2256, 5-(3,5-di-tert-butyl-4-hydroxybenzylidene)-2-thioxodihydropyrimidine-4,6(1H,5H)-dione] yielded an IC50 of 1.89 µM.
